According to US20230310388A1, “Methods and Compositions for Treating Fungal Infections” (Neoculi Pty Ltd, priority 2020, published 2023):
Converted amounts (≈) assume the structure as drawn. “And” between values parts separate entries of the source, which are not always exact repeats. Equal values may be shown once. Read-outs that look alike come from different tables or passages of the source. One block for each molecule: values may come before it.

Key:
Candida albicans [1] = assay: CLSI broth microdilution MIC (Example 3); type: cell-based
Protocol: (§1) Antifungal minimum inhibitory concentration (MIC) testing was undertaken as recommended by the CLSI. Briefly, antifungal susceptibility tests were performed for amphotericin B, robenidine (NCL812) and 5 robenidine analogs (NCL062, NCL195, NCL219, NCL259, NCL265) by standard broth microdilution method (CLSI) in RPMI 1640. Various concentrations (ranging from high to low) of the selected compounds were prepared in RPMI 1640 medium by double dilution in 96-well microtitre plates. Each well contained an inoculum of approximately 2×10^3 cells/mL. The wells without addition of drugs served as negative (no inoculum) and positive (inoculum only) growth controls. Microtitre plates were incubated at 35° C. for 24-48 hours. […] Antifungal MICs were determined for each isolate in duplicate; if the values obtained were different, the MIC test was repeated a third time. Antifungal susceptibility tests were performed for amphotericin B and NCL analogs by standard broth microdilution method (CLSI). Briefly, various concentrations (ranging from high to low) of the selected compounds were prepared in RPMI 1640 medium by double dilution in the 96-well plates. Each well contained an inoculum of approximately 2×10^3 cells/mL. The wells without addition of drugs served as a negative control. Micro plates were incubated at 35° C. for 48 hour and read spectrophotometrically at 600 nm, using a microplate reader (Multiskan-EX; Thermo Elect. Corp., USA).

Candida parapsilosis = assay: CLSI broth microdilution MIC (Example 3); type: cell-based; conditions: Candida parapsilosis ATCC 22019
Protocol: as §1

Cryptococcus neoformans = assay: CLSI broth microdilution MIC (Example 5); type: cell-based
Outline: (§2)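 Broth microdilution per CLSI in RPMI 1640 with twofold compound dilutions, inoculum about 2×10^3 cells/mL. Plates incubated at 35° C for 24-48 hours. MIC determined per isolate in duplicate, with a third repeat when the two values differed.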

Candida albicans [2] = assay: CLSI broth microdilution MIC (Example 5); type: cell-based
Outline: as §2

[3] = system: Candida albicans ATCC14053; assay: Broth micro-dilution screen at 16 μg/mL and MIC (Example 9); type: cell-based; conditions: for MIC: C. albicans ATCC14053, test range 0.25-64 μg/mL, duplicate; for Screen at 16 μg/mL: single concentration 16 μg/mL, Growth or No growth of C. albicans ATCC14053
Protocol: The antifungal activity of 201 NCL analogs against Candida albicans ATCC14053 in vitro was investigated. A broth micro-dilution method was used, according to CLSI guidelines as described. NCL analogs were dissolved in DMSO and originally screened at a single concentration of 16 μg/mL.

Malassezia pachydermatis = assay: MIC, mSAB broth microdilution (Example 1); type: cell-based; conditions: for activity against all 13 isolates of Malassezia pachydermatis: summary in words
Description: There is no recommended Clinical & Laboratory Standards Institute (CLSI) standard for M. pachydermatis. In the literature there are a number of papers which have developed Minimum Inhibitory Concentration (MIC) methodology for Malassezia species isolated from both humans and animals (ie both lipophilic and non-lipophilic species). In all papers, the methodology has been altered from the original CLSI protocols in order to overcome four main problem areas involved in testing this yeast. • 1) Finding a suitable growth medium for Malassezia, especially the lipophilic species. […] When testing the azole group of anti-fungal agents, there is also the well known trailing end point problem with MIC determination. Trailing occurs when the turbidity continually decreases as the drug concentration increases but the suspension fails to become optically clear (partial inhibition of growth over an extended range of antifungal concentrations). The following method was originally developed by Eichenberg et al. (2003) (mSAB broth microdilution method). The mSAB method was devised to follow as closely as possible the CLSI guidelines whilst still allowing for the distinct biochemical and growth requirements of M. pachydermatis. Sabouraud dextrose broth with 1% Tween 80 was chosen as the assay medium as it allowed for excellent growth of the organism. Higher inoculum concentrations (1-4×10^6 CFU/ml) and increased time of incubation (48 to 72 hours) were used to enable sufficient growth of the test strains.

C. gattii = assay: CLSI broth microdilution MIC (Example 6); type: cell-based, Cryptococcus gattii
Outline: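 CLSI broth microdilution in RPMI 1640, compounds serially double-diluted, inoculum about 2×10^3 cells/mL. Incubation at 35° C for 24-48 hours. MICs determined per isolate in duplicate, with a third repeat if values differed.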

[4] = human clinical isolate C. gattii 16-90050373
[5] = human clinical isolate C. gattii 17-90028211

MIC (Candida albicans [1]; Candida albicans, ATCC90028, Candida albicans ATCC 90028, 1st, read-out: MIC): 0.25 µg/mL (≈ 0.748 µM)
MIC (Candida albicans [1]; Candida albicans, ATCC90028, Candida albicans ATCC 90028, 2nd, read-out: MIC): 0.5 µg/mL (≈ 1.5 µM)
MIC (Candida albicans [1]; Candida albicans, two Candida albicans and one Candida parapsilosis isolates, summary range, read-out: MIC): 0.5 to 8 µg/mL (≈ 1.5 to 23.9 µM)
MIC (Candida albicans [1]; Candida albicans, 1st, read-out: MIC): 0.5 µg/mL (≈ 1.5 µM)
MIC (Candida albicans [1]; Candida albicans, 2nd, read-out: MIC): 1 µg/mL (≈ 2.99 µM)
MIC (Candida parapsilosis; 2nd): 0.5 µg/mL (≈ 1.5 µM)
MIC (Candida parapsilosis; Lodderomyces parapsilosis, ATCC22019, 1st, read-out: MIC): 0.5 µg/mL (≈ 1.5 µM)
MIC (Cryptococcus neoformans; Cryptococcus neoformans SA1, read-out: MIC): 2 µg/mL (≈ 5.98 µM)
MIC (Cryptococcus neoformans; Cryptococcus neoformans SA2): 2 µg/mL (≈ 5.98 µM)
MIC (Candida albicans [2]; Candida albicans, ATCC90028, Candida albicans ATCC 90028, read-out: MIC): 2 µg/mL (≈ 5.98 µM)
MIC (Candida albicans [2]; Candida albicans, clinical isolate C. albicans 12-93301752 Azole Resistant, read-out: MIC): 2 µg/mL (≈ 5.98 µM)
MIC (Candida albicans [2]; Candida albicans, clinical isolate C. albicans 14-90045999 Azole Resistant, read-out: MIC): 2 µg/mL (≈ 5.98 µM)
MIC (Candida albicans [2]; Candida albicans, clinical isolate C. albicans 15-45171061, read-out: MIC): 1 µg/mL (≈ 2.99 µM)
MIC (Candida albicans [2]; Candida albicans, clinical isolate C. albicans 15-91329871, read-out: MIC): 2 µg/mL (≈ 5.98 µM)
MIC (Candida albicans [2]; Candida albicans, clinical isolate C. albicans 16-24136919 Azole Resistant, read-out: MIC): 2 µg/mL (≈ 5.98 µM)
MIC (Candida albicans [2]; Candida albicans, clinical isolate C. albicans 16-46177400, read-out: MIC): 4 µg/mL (≈ 12 µM)
MIC (Candida albicans [2]; Candida albicans, clinical isolate C. albicans 16-90050810, read-out: MIC): 2 µg/mL (≈ 5.98 µM)
MIC (Candida albicans [2]; Candida albicans, clinical isolate C. albicans 16-90054237, read-out: MIC): 2 µg/mL (≈ 5.98 µM)
MIC (Candida albicans [2]; Candida albicans, clinical isolate C. albicans 18-144-00196, read-out: MIC): 0.5 µg/mL (≈ 1.5 µM)
MIC (Candida albicans [2]; Candida albicans, clinical isolate C. albicans 18-148-08188 Azole Resistant, read-out: MIC): 1 µg/mL (≈ 2.99 µM)
MIC (Candida albicans [2]; Candida albicans, C. albicans SA3, read-out: MIC): 2 µg/mL (≈ 5.98 µM)
MIC ([3]; Candida albicans, read-out: MIC): 0.5 µg/mL (≈ 1.5 µM)
MIC (Malassezia pachydermatis; Malassezia isolate M-036): 2 µg/mL (≈ 5.98 µM)
MIC (Malassezia pachydermatis; Malassezia isolate M-066): 2 µg/mL (≈ 5.98 µM)
MIC (Malassezia pachydermatis; Malassezia pachydermatis, Malassezia isolate M1-017, read-out: MIC): 2 µg/mL (≈ 5.98 µM)
MIC (Malassezia pachydermatis; Malassezia pachydermatis, Malassezia isolate M-018, read-out: MIC): 2 µg/mL (≈ 5.98 µM)
MIC (Malassezia pachydermatis; Malassezia pachydermatis, Malassezia isolate M-020, read-out: MIC): 2 µg/mL (≈ 5.98 µM)
MIC (Malassezia pachydermatis; Malassezia pachydermatis, Malassezia isolate M-036, read-out: MIC): 1 µg/mL (≈ 2.99 µM)
MIC (Malassezia pachydermatis; Malassezia pachydermatis, Malassezia isolate M-037, read-out: MIC): 2 µg/mL (≈ 5.98 µM)
MIC (Malassezia pachydermatis; Malassezia pachydermatis, Malassezia isolate M-038, read-out: MIC): 1 µg/mL (≈ 2.99 µM)
MIC (Malassezia pachydermatis; Malassezia pachydermatis, Malassezia isolate M-040, read-out: MIC): 2 µg/mL (≈ 5.98 µM)
MIC (Malassezia pachydermatis; Malassezia pachydermatis, Malassezia isolate M-052, read-out: MIC): 1 µg/mL (≈ 2.99 µM)
MIC (Malassezia pachydermatis; Malassezia pachydermatis, Malassezia isolate M-055, read-out: MIC): 1 µg/mL (≈ 2.99 µM)
MIC (Malassezia pachydermatis; Malassezia pachydermatis, Malassezia isolate M-060, read-out: MIC): 1 µg/mL (≈ 2.99 µM)
MIC (Malassezia pachydermatis; Malassezia pachydermatis, Malassezia isolate M-066, read-out: MIC): 1 µg/mL (≈ 2.99 µM)
MIC (Malassezia pachydermatis; Malassezia pachydermatis, Malassezia isolate M-067, read-out: MIC): 1 µg/mL (≈ 2.99 µM)
MIC (Malassezia pachydermatis; Malassezia pachydermatis, Malassezia isolate M-069, read-out: MIC): 2 µg/mL (≈ 5.98 µM)
MIC (C. gattii; Cryptococcus gattii, human clinical isolate C. gattii 17-90028217, read-out: MIC): 16 µg/mL (≈ 47.9 µM)
MIC (C. gattii; [4]): 16 µg/mL (≈ 47.9 µM)
MIC (C. gattii; [5]): 16 µg/mL (≈ 47.9 µM)
Structure (SMILES): N=C(N/N=C/c1ccc(Cl)cc1)N/N=C/c1ccc(Cl)cc1 [NCL812, robenidine, reference compound]
activity against all tested isolates of Cryptococcus neoformans and Candida albicans (Candida albicans [2]; summary in words): active
activity against one or more isolates of Cryptococcus neoformans and Candida albicans (Candida albicans [2]; summary in words): highly active
activity against Candida albicans at the low discriminating concentration ([3]; 16 μg/mL screen, summary in words): high activity
Screen at 16 μg/mL [3]: No growth
activity against all 13 isolates of Malassezia pachydermatis (Malassezia pachydermatis): highly active

MIC (Candida albicans [1]; Candida albicans ATCC 90028, 1st): 2 µg/mL (≈ 5.56 µM)
MIC (Candida albicans [1]; Candida albicans ATCC 90028, 2nd): 2 µg/mL (≈ 5.56 µM)
MIC (Candida albicans [1]; Candida albicans, 1st): 2 µg/mL (≈ 5.56 µM)
MIC (Candida albicans [1]; Candida albicans, 2nd): 2 µg/mL (≈ 5.56 µM)
MIC (Candida parapsilosis; 1st): 1 µg/mL (≈ 2.78 µM)
MIC (Candida parapsilosis; 2nd): 2 µg/mL (≈ 5.56 µM)
MIC (Cryptococcus neoformans; Cryptococcus neoformans SA1): 2 µg/mL (≈ 5.56 µM)
MIC (Cryptococcus neoformans; Cryptococcus neoformans SA2): 2 µg/mL (≈ 5.56 µM)
MIC (Candida albicans [2]; C. albicans SA3): 2 µg/mL (≈ 5.56 µM)
MIC (Candida albicans [2]; Candida albicans ATCC 90028): 2 µg/mL (≈ 5.56 µM)
MIC (Candida albicans [2]; clinical isolate C. albicans 12-93301752 Azole Resistant): 4 µg/mL (≈ 11.1 µM)
MIC (Candida albicans [2]; clinical isolate C. albicans 14-90045999 Azole Resistant): >16 µg/mL
MIC (Candida albicans [2]; clinical isolate C. albicans 15-45171061): 8 µg/mL (≈ 22.3 µM)
MIC (Candida albicans [2]; clinical isolate C. albicans 15-91329871): 8 µg/mL (≈ 22.3 µM)
MIC (Candida albicans [2]; clinical isolate C. albicans 16-24136919 Azole Resistant): 4 µg/mL (≈ 11.1 µM)
MIC (Candida albicans [2]; clinical isolate C. albicans 16-46177400): 4 µg/mL (≈ 11.1 µM)
MIC (Candida albicans [2]; clinical isolate C. albicans 16-90050810): 4 µg/mL (≈ 11.1 µM)
MIC (Candida albicans [2]; clinical isolate C. albicans 16-90054237): 4 µg/mL (≈ 11.1 µM)
MIC (Candida albicans [2]; clinical isolate C. albicans 18-144-00196): 4 µg/mL (≈ 11.1 µM)
MIC (Candida albicans [2]; clinical isolate C. albicans 18-148-08188 Azole Resistant): >16 µg/mL
MIC [3]: 1 µg/mL and 2 µg/mL
MIC (Malassezia pachydermatis; Malassezia isolate M1-017): 1 µg/mL (≈ 2.78 µM)
MIC (Malassezia pachydermatis; Malassezia isolate M-018): 1 µg/mL (≈ 2.78 µM)
MIC (Malassezia pachydermatis; Malassezia isolate M-020): 1 µg/mL (≈ 2.78 µM)
MIC (Malassezia pachydermatis; Malassezia isolate M-036): 1 µg/mL (≈ 2.78 µM)
MIC (Malassezia pachydermatis; Malassezia isolate M-037): 1 µg/mL (≈ 2.78 µM)
MIC (Malassezia pachydermatis; Malassezia isolate M-038): 1 µg/mL (≈ 2.78 µM)
MIC (Malassezia pachydermatis; Malassezia isolate M-040): 0.5 µg/mL and 1 µg/mL
MIC (Malassezia pachydermatis; Malassezia isolate M-052): 1 µg/mL (≈ 2.78 µM)
MIC (Malassezia pachydermatis; Malassezia isolate M-055): 1 µg/mL (≈ 2.78 µM)
MIC (Malassezia pachydermatis; Malassezia isolate M-060): 1 µg/mL (≈ 2.78 µM)
MIC (Malassezia pachydermatis; Malassezia isolate M-066): 1 µg/mL (≈ 2.78 µM)
MIC (Malassezia pachydermatis; Malassezia isolate M-067): 0.5 µg/mL and 1 µg/mL
MIC (Malassezia pachydermatis; Malassezia isolate M-069): 1 µg/mL (≈ 2.78 µM)
MIC (C. gattii; human clinical isolate C. gatti 17-90232099): 2 µg/mL (≈ 5.56 µM)
MIC (C. gattii; [4]): 2 µg/mL (≈ 5.56 µM)
MIC (C. gattii; [5]): 2 µg/mL (≈ 5.56 µM)
MIC (C. gattii; human clinical isolate C. gattii 17-90028217): 2 µg/mL (≈ 5.56 µM)
MIC (C. gattii; human clinical isolate C. gattii 17-90028242): 2 µg/mL (≈ 5.56 µM)
Structure (SMILES): Cc1ccc(/C=N/Nc2cc(N/N=C/c3ccc(C)cc3)nc(N)n2)cc1 [NCL195]
activity against one or more isolates of Cryptococcus neoformans and Candida albicans (Candida albicans [2]; summary in words): highly active
Screen at 16 μg/mL [3]: No growth
activity against all 13 isolates of Malassezia pachydermatis (Malassezia pachydermatis): highly active
